From article PMC11320734 (ACS Pharmacology & Translational Science, 2024)

Assays:
TRPA1 = TRPA1 (Homo sapiens, UniProt O75762); assay: Endocannabinoid target profiling: TRPA1; details: Table S1; read-out: TRPA1 (Ki, IC50)
TRPV1 = TRPV1 (Homo sapiens, UniProt Q8NER1); assay: Endocannabinoid target profiling: TRPV1; details: Table S1; read-out: TRPV1 (Ki, IC50)
ABHD6 = ABHD6 (Homo sapiens, UniProt Q9BV23); assay: Endocannabinoid target profiling: ABHD6; type: biochemical
[1] = tested on: renal I/R-induced acute kidney injury; assay: Ischemia/reperfusion (I/R) model of acute kidney injury; type: in vivo, C57BL/6 mice
Description: In the ischemia/reperfusion (I/R) model of acute kidney injury (AKI),[47],[48] the compounds were administered orally by gavage to C57BL/6 mice 30 min before ischemia obtained by clamping both renal arteries and veins for 25 min, followed by 24 h of reperfusion. Mice were anesthetized using xylazine (10 mg kg^–1)/ketamine (100 mg kg^–1) injected intraperitoneally. Sham treated mice were treated identically except for the temporary closure of the renal vessels. After 24 h, under reanesthesia, plasma was taken for biomarker analysis. Thereafter, mice still in deep anesthesia were sacrificed by cervical dislocation. Creatinine, BUN (blood urea nitrogen), NGAL (neutrophil gelatinase-associated lipocalin), osteopontin, and KIM1 (kidney injury molecule-1) levels were determined using the following commercially available standard assays: creatinine: Roche Diagnostics 03263991, BUN: Roche Diagnostics 04460715, NGAL: BioPorto, Kit046 + Kit042, osteopontin: R&D Systems, MOST00, KIM-1: Abnova, KA1064. To assess fibrotic effects, we used the unilateral ureteral obstruction (UOO) model in Sprague–Dawley rats.[49] For the UOO model, rats were sacrificed after 5, 8, and 11 days and the percentage of PicroSirius Red positive areas (indicator of collagen III–I deposition) were measured in 4 μm histological cross sections of the kidney after 2% paraformaldehyde perfusion fixation and paraffin embedding. The extend of kidney fibrosis was quantified based on PicroSirius Red staining of 10 renal sections about 1 mm apart from each kidney. The collagen–III-I-positive pixel counts were determined in the cortical aspect of each kidney section from 10 optical fields using a 40× objective. As the total area analyzed was identical for all kidneys under investigation, the absolute number of pixels was used as the relevant readout. Vehicle treated animals received saline gavage only. The details of PicroSirius Red staining were previously described.[22]

[2] = Single-dose pharmacokinetics in mice; type: in vivo; details: mouse, plasma
Description: To characterize the pharmacokinetic behavior of RNB-61, studies in rodents were conducted at the in vivo facility of F. Hoffmann-La Roche Ltd. (Basel, Switzerland). The plasma-concentration time profile was studied in rodents after single-dose RNB-61 administration by oral gavage (p.o. microsuspension excipients 7.5% gelatin/0.62% NaCl) and intravenous bolus injection (i.v. solution, excipients NMP:NaCl (30:70)). Three groups of male Wistar rats (n = 2 per group) were administered RNB-61 either at 1 mg kg^–1 i.v., 3 mg kg^–1 p.o., or 26 mg kg^–1 p.o. Plasma samples were drawn at 0.083, 0.25, 0.5, 1, 2, 4, 8, and 24 postdose in the i.v. group and at 0.25, 0.5, 0.75, 1.5, 3, 5, 8, and 24 h postdose in the p.o. groups. The samples were analyzed for RNB-61 concentration by LC/MS-MS. For the LC/MS-MS analysis, and the samples were prepared by adding 100 uL to 400 uL ACN with ISTD (100 ng/mL Bosantan in ACN/MeOH 1/1), stirring, and centrifuging (4000 rpm, 65’). 100 uL of the supernatant were pipetted and diluted with 400 μL H2O at pH 3. The analytes were separated on a Restek C18 column (5 μm, 1.0 × 3 mm). The mobile phase consisted of water containing 0.1% HCOOH as solvent A and ACN containing 0.1% HCOOH as solvent B. The gradient curve starting with 5% B was changed to 90% B between 0.4 and 0.6 min and further increased to 95% B between 0.6 and 1.2 min. This was maintained until 1.4 min and then reduced and kept at 5% B between 1.45 and 2.0 min. The mass spectrometer was operated in the positive mode. All LC-MS/MS was done using the Agilent RapidFire Analyzer software (version 4.3). The pharmacokinetic parameters were estimated by noncompartmental analysis in the Certara WinNonlin software (version 5.3). A similar study design was run in mice with three groups receiving 2 mg kg^–1 i.v., 4 mg kg^–1 p.o., or 26 mg kg^–1 p.o., and plasma sampling occurring in a composite profile (n = 2 for each time point) up to 7 or 24 h postdose. Male C57/BL6 mice (n = 5 per group) were used to study the influence of P-gp efflux on brain penetration. Two groups of mice were administered RNB-61 by i.v. bolus injection at 1 mg kg^–1 (2 groups). In order to block P-gp activity, an i.v. bolus of 5 mg kg^–1 tariquidar[46] was injected into one group 30 min prior to RNB-61. Plasma was collected at 0.083, 0.25, 0.5, 2, 4, and 7 h postdose in a composite profile. Brain, CSF, and vitreous body were collected at terminal time points 0.5, 2, 4, and 7 h postdose.

cynomolgus CB2R = cynomolgus CB2R (Macaca fascicularis, UniProt G7NVV5); assay: cAMP assay in CHO cells; type: cell-based; details: mean ± SD; read-out: EC50 cAMP assay, monkey CB2R
Sequence of cynomolgus CB2R (G7NVV5 1-360): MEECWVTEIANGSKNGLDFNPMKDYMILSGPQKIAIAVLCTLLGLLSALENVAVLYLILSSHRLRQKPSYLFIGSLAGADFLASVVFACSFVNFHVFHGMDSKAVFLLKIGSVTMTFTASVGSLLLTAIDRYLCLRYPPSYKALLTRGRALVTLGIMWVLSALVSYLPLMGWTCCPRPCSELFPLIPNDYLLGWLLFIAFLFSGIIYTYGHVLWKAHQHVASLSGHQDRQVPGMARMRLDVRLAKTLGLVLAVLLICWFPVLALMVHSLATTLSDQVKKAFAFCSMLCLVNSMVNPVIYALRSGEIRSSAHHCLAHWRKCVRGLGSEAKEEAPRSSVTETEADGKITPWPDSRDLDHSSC

[3] = 3 mg kg^–1 p.o., 24 h reperfusion
[4] = maximal protection at 3–30 mg kg^–1

Sequence of ABHD6 (Q9BV23 whole entry, species assumed, the tested form may be a part): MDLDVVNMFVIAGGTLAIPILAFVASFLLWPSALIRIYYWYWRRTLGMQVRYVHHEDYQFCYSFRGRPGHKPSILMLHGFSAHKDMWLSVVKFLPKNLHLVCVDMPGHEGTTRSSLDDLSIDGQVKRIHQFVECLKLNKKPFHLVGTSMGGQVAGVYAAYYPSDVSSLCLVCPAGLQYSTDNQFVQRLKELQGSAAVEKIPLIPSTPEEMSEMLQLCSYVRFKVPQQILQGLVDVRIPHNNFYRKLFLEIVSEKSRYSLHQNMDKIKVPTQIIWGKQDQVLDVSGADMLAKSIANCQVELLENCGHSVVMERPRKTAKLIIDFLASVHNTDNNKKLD
Sequence of TRPA1 (O75762 whole entry, species assumed): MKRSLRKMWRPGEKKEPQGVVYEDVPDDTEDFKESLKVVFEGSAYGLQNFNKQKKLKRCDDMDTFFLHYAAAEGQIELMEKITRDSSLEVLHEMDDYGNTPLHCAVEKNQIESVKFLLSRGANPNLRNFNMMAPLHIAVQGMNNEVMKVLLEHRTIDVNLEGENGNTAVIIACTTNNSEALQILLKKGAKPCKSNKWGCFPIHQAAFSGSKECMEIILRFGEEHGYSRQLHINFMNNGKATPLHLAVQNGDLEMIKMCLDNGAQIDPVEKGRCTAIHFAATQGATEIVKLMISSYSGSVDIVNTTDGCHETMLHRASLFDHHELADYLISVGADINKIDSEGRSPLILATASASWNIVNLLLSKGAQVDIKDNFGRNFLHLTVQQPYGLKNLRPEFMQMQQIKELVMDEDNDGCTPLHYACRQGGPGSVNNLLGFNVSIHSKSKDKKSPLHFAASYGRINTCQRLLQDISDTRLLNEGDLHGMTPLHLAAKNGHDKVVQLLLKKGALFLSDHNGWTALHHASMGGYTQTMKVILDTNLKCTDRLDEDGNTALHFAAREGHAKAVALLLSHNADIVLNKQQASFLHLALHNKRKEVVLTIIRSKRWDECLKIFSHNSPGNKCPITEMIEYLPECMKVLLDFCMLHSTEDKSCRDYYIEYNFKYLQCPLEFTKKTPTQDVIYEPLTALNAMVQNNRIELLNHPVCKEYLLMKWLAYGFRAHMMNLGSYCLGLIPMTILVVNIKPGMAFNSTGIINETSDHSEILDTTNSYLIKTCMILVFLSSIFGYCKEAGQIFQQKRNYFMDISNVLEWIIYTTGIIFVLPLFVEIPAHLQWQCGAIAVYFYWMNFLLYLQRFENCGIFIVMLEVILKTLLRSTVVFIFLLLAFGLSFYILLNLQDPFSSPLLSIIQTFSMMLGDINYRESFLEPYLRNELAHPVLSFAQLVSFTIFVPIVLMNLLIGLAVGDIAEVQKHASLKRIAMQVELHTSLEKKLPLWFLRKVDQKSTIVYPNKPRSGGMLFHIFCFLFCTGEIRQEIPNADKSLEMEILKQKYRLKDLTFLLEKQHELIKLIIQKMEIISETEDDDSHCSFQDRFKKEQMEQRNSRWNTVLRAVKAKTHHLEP
Sequence of TRPV1 (Q8NER1 whole entry, species assumed): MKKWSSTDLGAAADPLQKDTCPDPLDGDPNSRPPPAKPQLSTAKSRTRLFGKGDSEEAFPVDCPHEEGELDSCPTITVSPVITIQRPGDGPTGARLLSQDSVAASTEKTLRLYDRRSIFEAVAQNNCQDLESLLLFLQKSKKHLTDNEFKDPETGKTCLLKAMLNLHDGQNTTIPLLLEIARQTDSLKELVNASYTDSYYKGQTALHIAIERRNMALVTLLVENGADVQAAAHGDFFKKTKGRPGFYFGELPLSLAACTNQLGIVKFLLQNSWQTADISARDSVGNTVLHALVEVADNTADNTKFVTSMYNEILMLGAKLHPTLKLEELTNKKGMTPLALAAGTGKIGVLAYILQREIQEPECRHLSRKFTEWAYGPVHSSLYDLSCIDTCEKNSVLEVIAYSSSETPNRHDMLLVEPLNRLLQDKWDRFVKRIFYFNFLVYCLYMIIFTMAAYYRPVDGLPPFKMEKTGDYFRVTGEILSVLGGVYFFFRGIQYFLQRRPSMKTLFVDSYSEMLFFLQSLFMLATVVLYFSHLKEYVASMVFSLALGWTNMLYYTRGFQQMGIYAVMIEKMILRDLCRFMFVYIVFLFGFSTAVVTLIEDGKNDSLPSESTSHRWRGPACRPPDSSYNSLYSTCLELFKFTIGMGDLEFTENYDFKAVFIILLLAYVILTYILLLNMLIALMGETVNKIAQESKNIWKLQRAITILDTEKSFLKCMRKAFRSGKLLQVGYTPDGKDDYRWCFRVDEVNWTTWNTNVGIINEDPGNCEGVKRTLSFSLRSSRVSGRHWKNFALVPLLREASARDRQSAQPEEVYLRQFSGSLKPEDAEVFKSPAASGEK

For Cn1c(C(C)(C)C)cc(=NC(=O)c2cc(C(F)(F)F)ccc2OCC(C)(C)O)n1CC1CCC1 [RNB-61], the IC50 (TRPA1) was over 50 µM, the IC50 (TRPV1) was over 50 µM and the IC50 (ABHD6; Table S1, read-out: ABHD6 (Ki, IC50)) was over 10 µM. The “inhibition of EC hydrolysis by ABHD6” value (ABHD6; screening concentration 10 μM) was “did not inhibit”, the “effect on I/R induced plasma creatinine levels” value ([1]; 0.1 mg kg^–1) was “No significant difference” and the “reduction of BUN compared to vehicle” value [1, 3] was 30%. For the same compound, the “reduction of plasma creatinine compared to vehicle” value [1, 3] was 48%, the “reduction of plasma KIM-1 compared to vehicle” value [1, 4] was 50% and the “reduction of plasma NGAL compared to vehicle” value [1, 4] was 39%. The “reduction of plasma osteopontin compared to vehicle” value [1, 4] was 43%, the “dose from which KIM-1 release is inhibited” value ([1]; mouse, in vivo) was 0.3 mg kg^–1 and the “dose from which NGAL release is inhibited” value ([1]; mouse, in vivo) was 0.3 mg kg^–1. The “dose from which osteopontin release is inhibited” value ([1]; mouse, in vivo) was 3 mg kg^–1, the AUC(0-inf) ([2]; iv, 2 mg kg^–1 i.v.) was 8630 ng·h/mL and the Cmax ([2]; iv, 2 mg kg^–1 i.v.) was 1170 ng/mL. It also gave a Tmax ([2]; iv, 2 mg kg^–1 i.v.) of 0.25 h, a clearance ([2]; iv, 2 mg kg^–1 i.v.) of 3.9 mL/min/kg and a half-life ([2]; iv, 2 mg kg^–1 i.v.) of 7.7 h. For the same compound, the Vd ([2]; iv, 2 mg kg^–1 i.v., read-out: Vss) was 2.4 L/kg, the AUC(0-inf) ([2]; po, 4 mg kg^–1 p.o.) was 9300 ng·h/mL and the Cmax ([2]; po, 4 mg kg^–1 p.o.) was 843 ng/mL. The Tmax ([2]; po, 4 mg kg^–1 p.o.) was 2 h, the bioavailability ([2]; po, 4 mg kg^–1 p.o.) was 54% and the half-life ([2]; po, 4 mg kg^–1 p.o.) was 6.4 h. For the same compound, the AUC(0-inf) ([2]; po, 26 mg kg^–1 p.o.) was 47300 ng·h/mL, the Cmax ([2]; po, 26 mg kg^–1 p.o.) was 4370 ng/mL and the Tmax ([2]; po, 26 mg kg^–1 p.o.) was 2 h. For the same compound, the bioavailability ([2]; po, 26 mg kg^–1 p.o.) was 42%, the half-life ([2]; po, 26 mg kg^–1 p.o.) was 4.3 h and the EC50 (cynomolgus CB2R) was 0.0007 ± 3e-05 µM.
